Values joined by “and” are separate entries in the source; they are usually repeats but may differ in a detail not shown here. Identical values can stand only once.
Settings: Crystal, Torsion effusion method

[I][Lu]([I])[I] [lutetium triiodide]
Settings | vapor or sublimation pressure
862 K | 3e-05 kPa
875 K | 6e-05 kPa
883 K | 7.6e-05 kPa
888 K | 8.9e-05 kPa
892 K | 7.6e-05 kPa
893 K | 0.000105 kPa
894 K | 0.00012 kPa
895 K | 0.00012 kPa
896 K | 0.000151 kPa
897 K | 0.00012 kPa
898 K | 0.000151 kPa
899 K | 0.000151 kPa
900 K | 0.000105 kPa
901 K | 0.00012 kPa
904 K | 0.000151 kPa and 0.000182 kPa
905 K | 0.000182 kPa
906 K | 0.000224 kPa and 0.000166 kPa
909 K | 0.000209 kPa and 0.000151 kPa and 0.000166 kPa
911 K | 0.00024 kPa and 0.000195 kPa
912 K | 0.000209 kPa
913 K | 0.00024 kPa
915 K | 0.000269 kPa
916 K | 0.000302 kPa and 0.00024 kPa
917 K | 0.000347 kPa
918 K | 0.00024 kPa
919 K | 0.000209 kPa
920 K | 0.000269 kPa and 0.000288 kPa
921 K | 0.000331 kPa
923 K | 0.000372 kPa
924 K | 0.000363 kPa
926 K | 0.000269 kPa and 0.000447 kPa
927 K | 0.000347 kPa
928 K | 0.000513 kPa and 0.000363 kPa and 0.000389 kPa
929 K | 0.000389 kPa
931 K | 0.000513 kPa
932 K | 0.000501 kPa
933 K | 0.000575 kPa
935 K | 0.000537 kPa
936 K | 0.000513 kPa
937 K | 0.000513 kPa
938 K | 0.000724 kPa [middle of 4 runs]
940 K | 0.000692 kPa
942 K | 0.000759 kPa
943 K | 0.000759 kPa and 0.000692 kPa
945 K | 0.000692 kPa and 0.000575 kPa and 0.000724 kPa
948 K | 0.001047 kPa and 0.000776 kPa
949 K | 0.000933 kPa
950 K | 0.001023 kPa
951 K | 0.001072 kPa and 0.000891 kPa
952 K | 0.001122 kPa
953 K | 0.000933 kPa
954 K | 0.001 kPa
955 K | 0.000832 kPa
958 K | 0.001413 kPa and 0.001445 kPa and 0.001148 kPa
959 K | 0.001445 kPa and 0.00123 kPa
960 K | 0.001514 kPa
961 K | 0.001479 kPa
962 K | 0.001349 kPa
963 K | 0.001413 kPa
964 K | 0.00123 kPa
967 K | 0.00195 kPa and 0.001622 kPa
968 K | 0.002239 kPa and 0.001995 kPa
969 K | 0.001622 kPa
970 K | 0.002138 kPa
972 K | 0.001905 kPa and 0.002239 kPa and 0.00182 kPa
974 K | 0.001738 kPa
975 K | 0.002138 kPa
976 K | 0.002951 kPa and 0.00257 kPa
977 K | 0.002884 kPa and 0.002138 kPa
978 K | 0.002455 kPa
979 K | 0.002291 kPa and 0.002951 kPa
983 K | 0.002951 kPa and 0.002399 kPa
985 K | 0.003631 kPa and 0.003162 kPa and 0.003236 kPa
986 K | 0.003981 kPa and 0.003715 kPa
987 K | 0.00302 kPa
991 K | 0.004266 kPa
993 K | 0.004677 kPa and 0.00389 kPa
994 K | 0.004074 kPa and 0.003388 kPa and 0.004169 kPa
995 K | 0.005012 kPa and 0.003631 kPa
996 K | 0.005012 kPa
1004 K | 0.00631 kPa and 0.005623 kPa

[Br][Yb]([Br])[Br] [ytterbium tribromide]
Settings | vapor or sublimation pressure
891 K | 4.7e-05 kPa
897 K | 7.9e-05 kPa and 6.3e-05 kPa
905 K | 9.3e-05 kPa and 6.3e-05 kPa
906 K | 0.000126 kPa
909 K | 0.00011 kPa
912 K | 7.9e-05 kPa
913 K | 0.00011 kPa
915 K | 0.000158 kPa
916 K | 0.000158 kPa
920 K | 0.000126 kPa
923 K | 0.000158 kPa and 0.000219 kPa
924 K | 0.000219 kPa
926 K | 0.000219 kPa
928 K | 0.000191 kPa
929 K | 0.000158 kPa
932 K | 0.000316 kPa
933 K | 0.000316 kPa
934 K | 0.000347 kPa
936 K | 0.000251 kPa and 0.000219 kPa
937 K | 0.000347 kPa
938 K | 0.000282 kPa
940 K | 0.000427 kPa
942 K | 0.000437 kPa
943 K | 0.000468 kPa
945 K | 0.000468 kPa and 0.000331 kPa
946 K | 0.000347 kPa
947 K | 0.00038 kPa
948 K | 0.000562 kPa
952 K | 0.000631 kPa
953 K | 0.000692 kPa
954 K | 0.000631 kPa
955 K | 0.000525 kPa
956 K | 0.000537 kPa and 0.000501 kPa
958 K | 0.000794 kPa
963 K | 0.000851 kPa
964 K | 0.000933 kPa
965 K | 0.000759 kPa [middle of 4 runs]
969 K | 0.001122 kPa
972 K | 0.001175 kPa
973 K | 0.000977 kPa and 0.001259 kPa
974 K | 0.000933 kPa and 0.00138 kPa
975 K | 0.000977 kPa
978 K | 0.001585 kPa
979 K | 0.001122 kPa
980 K | 0.001585 kPa
982 K | 0.001698 kPa
983 K | 0.00138 kPa
984 K | 0.001349 kPa
985 K | 0.001995 kPa
988 K | 0.002042 kPa
990 K | 0.002188 kPa
991 K | 0.001622 kPa
992 K | 0.001905 kPa
993 K | 0.00257 kPa
994 K | 0.001905 kPa
995 K | 0.002754 kPa
997 K | 0.002692 kPa
1000 K | 0.002399 kPa
1002 K | 0.002512 kPa
1003 K | 0.003631 kPa
1006 K | 0.003467 kPa
1008 K | 0.004169 kPa
1009 K | 0.003162 kPa
1012 K | 0.003388 kPa
1013 K | 0.004677 kPa
1018 K | 0.003981 kPa
1021 K | 0.004365 kPa and 0.00631 kPa
1022 K | 0.006457 kPa
1026 K | 0.005012 kPa
1032 K | 0.005754 kPa

[Cl][Yb]([Cl])[Cl] [ytterbium trichloride]
Settings | vapor or sublimation pressure
944 K | 0.000158 kPa
950 K | 0.000126 kPa
952 K | 0.000126 kPa
953 K | 0.000158 kPa
958 K | 0.000158 kPa and 0.000282 kPa
961 K | 0.000219 kPa
962 K | 0.000191 kPa
966 K | 0.000191 kPa and 0.000251 kPa
970 K | 0.000251 kPa
972 K | 0.000251 kPa
974 K | 0.000347 kPa and 0.000316 kPa
975 K | 0.000316 kPa and 0.000501 kPa
976 K | 0.000282 kPa
980 K | 0.00038 kPa
981 K | 0.00038 kPa
982 K | 0.000437 kPa and 0.00038 kPa
983 K | 0.000437 kPa
986 K | 0.000407 kPa
990 K | 0.000603 kPa and 0.000468 kPa and 0.000537 kPa
992 K | 0.000562 kPa
993 K | 0.000871 kPa
994 K | 0.000631 kPa
996 K | 0.000631 kPa
999 K | 0.000759 kPa and 0.000692 kPa
1000 K | 0.000794 kPa and 0.000759 kPa
1001 K | 0.000724 kPa
1005 K | 0.000851 kPa and 0.001349 kPa
1007 K | 0.001 kPa
1008 K | 0.000912 kPa
1010 K | 0.000977 kPa and 0.001 kPa
1015 K | 0.001175 kPa and 0.00123 kPa
1016 K | 0.001413 kPa
1017 K | 0.00123 kPa and 0.001905 kPa
1019 K | 0.001318 kPa
1020 K | 0.001349 kPa and 0.001549 kPa
1023 K | 0.001514 kPa
1026 K | 0.001622 kPa
1029 K | 0.001698 kPa
1030 K | 0.002884 kPa
1035 K | 0.002188 kPa
1036 K | 0.002089 kPa and 0.002344 kPa and 0.002239 kPa
1038 K | 0.002239 kPa and 0.002188 kPa
1044 K | 0.002692 kPa and 0.00302 kPa and 0.004571 kPa
1046 K | 0.002884 kPa
1048 K | 0.00302 kPa
1050 K | 0.003388 kPa
1052 K | 0.003802 kPa
1053 K | 0.003802 kPa
1054 K | 0.003981 kPa
1055 K | 0.003802 kPa and 0.006761 kPa
1057 K | 0.004074 kPa
1062 K | 0.005129 kPa and 0.005012 kPa
1063 K | 0.004677 kPa and 0.004898 kPa and 0.005012 kPa
1064 K | 0.004898 kPa
1071 K | 0.005888 kPa and 0.006761 kPa and 0.006918 kPa
1072 K | 0.00631 kPa and 0.006918 kPa and 0.006457 kPa
1079 K | 0.008318 kPa
1081 K | 0.008913 kPa and 0.00912 kPa
1082 K | 0.00871 kPa
1087 K | 0.01 kPa
1088 K | 0.01202 kPa and 0.01148 kPa
1090 K | 0.01202 kPa
1096 K | 0.01349 kPa
